Data reported in US20250230147A1, “LACTAMS AS CBL-B INHIBITORS” (Genentech, Inc., priority 2021, published 2025).

Legend:
[1] = target: Cbl-b (Homo sapiens (Human), UniProt Q13191); experiment: Cbl-b LCK Ub TR-FRET assay (Cbl-b Lck HTRF); assay type: biochemical
Method in brief: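 TR-FRET (340 nm excitation, 615/665 nm emission) read after adding HA-ubiquitin–UBE2D2 thioester, anti-HA-D2 and streptavidin-Eu. Beforehand, compounds incubated 60 min with biotinylated Cbl-b, then 90 min with His-LCK and ATP (1 mM in 2× mix); IC50 from 10 concentrations, DMSO high and no-LCK low controls.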

[2] = target: c-Cbl (Homo sapiens (Human), UniProt P22681); experiment: C-Cbl LCK Ub TR-FRET assay (c-cbl Lck HTRF); assay type: biochemical; conditions: for (fold-selectivity): C-cbl Lck HTRF IC50 relative to Cbl-b Lck HTRF IC50
Method in brief: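 Detection reagents added, brief spin, 20 min RT. IC50 fit normalized to no-LCK (low) and DMSO (high) controls.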

c-Cbl, sequence (P22681 47-435): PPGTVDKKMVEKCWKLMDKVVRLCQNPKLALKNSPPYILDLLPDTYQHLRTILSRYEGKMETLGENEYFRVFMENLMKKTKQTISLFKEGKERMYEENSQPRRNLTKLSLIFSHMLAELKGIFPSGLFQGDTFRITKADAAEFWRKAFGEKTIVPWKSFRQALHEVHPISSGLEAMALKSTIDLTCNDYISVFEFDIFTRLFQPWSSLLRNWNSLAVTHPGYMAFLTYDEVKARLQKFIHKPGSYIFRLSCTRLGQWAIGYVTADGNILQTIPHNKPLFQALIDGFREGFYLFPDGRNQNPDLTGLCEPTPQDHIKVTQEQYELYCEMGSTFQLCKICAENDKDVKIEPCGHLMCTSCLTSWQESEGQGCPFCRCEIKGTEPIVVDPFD
Cbl-b, sequence (Q13191 40-426): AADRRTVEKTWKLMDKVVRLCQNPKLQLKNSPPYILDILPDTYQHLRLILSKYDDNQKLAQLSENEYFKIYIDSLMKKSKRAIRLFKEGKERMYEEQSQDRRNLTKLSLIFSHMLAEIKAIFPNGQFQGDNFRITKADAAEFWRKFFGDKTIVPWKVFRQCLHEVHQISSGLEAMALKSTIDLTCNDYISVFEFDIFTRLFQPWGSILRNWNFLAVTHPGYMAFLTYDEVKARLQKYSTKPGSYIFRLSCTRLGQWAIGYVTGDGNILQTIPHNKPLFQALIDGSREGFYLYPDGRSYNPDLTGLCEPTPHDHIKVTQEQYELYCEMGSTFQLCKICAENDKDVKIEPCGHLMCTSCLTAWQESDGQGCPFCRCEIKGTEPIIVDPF

| IC50 [1] [nM] | IC50 [2] [nM] | (fold-selectivity) [2] [x] | Compound |
| --- | --- | --- | --- |
| 380 | 970 | 2.8 | Cn1cnnc1[C@@H](F)C1(c2cccc(N3Cc4c(cc(CN5CC6(CCO6)C5)cc4C(F)(F)F)C3=O)c2)COC1 [Compound 140, (S)-6-(1-oxa-6-azaspiro[3.3]heptan-6-ylmethyl)-2-(3-(3-(fluoro(4-methyl-4H-1,2,4-triazol-3-yl)methyl)oxetan-3-yl)phenyl)-4-(trifluoromethyl)isoindolin-1-one] |
| 91 | 120 | 1.3 | Cn1cnnc1[C@H](F)C1(c2cccc(N3Cc4c(cc(CN5CCC(C)(O)CC5)cc4C(F)(F)F)C3=O)c2)COC1 [Compound 141, (R)-2-(3-(3-(fluoro(4-methyl-4H-1,2,4-triazol-3-yl)methyl)oxetan-3-yl)phenyl)-6-((4-hydroxy-4-methylpiperidin-1-yl)methyl)-4-(trifluoromethyl)isoindolin-1-one] |
| 230 | 430 | 1.9 | Cn1cnnc1[C@@H](F)C1(c2cccc(N3Cc4c(cc(CN5CCC(C)(O)CC5)cc4C(F)(F)F)C3=O)c2)COC1 [Compound 142, (S)-2-(3-(3-(fluoro(4-methyl-4H-1,2,4-triazol-3-yl)methyl)oxetan-3-yl)phenyl)-6-((4-hydroxy-4-methylpiperidin-1-yl)methyl)-4-(trifluoromethyl)isoindolin-1-one] |
| 29 | 27 | 0.92 | Cn1cnnc1[C@H](F)C1(c2cccc(N3Cc4c(cc(CN5CCC[C@H](CO)C5)cc4C(F)(F)F)C3=O)c2)COC1 [Compound 143, 2-(3-(3-((R)-fluoro(4-methyl-4H-1,2,4-triazol-3-yl)methyl)oxetan-3-yl)phenyl)-6-(((S)-3-(hydroxymethyl)piperidin-1-yl)methyl)-4-(trifluoromethyl)isoindolin-1-one] |
| 72 | 66 | 0.91 | Cn1cnnc1[C@@H](F)C1(c2cccc(N3Cc4c(cc(CN5CCC[C@H](CO)C5)cc4C(F)(F)F)C3=O)c2)COC1 [Compound 144, 2-(3-(3-((S)-fluoro(4-methyl-4H-1,2,4-triazol-3-yl)methyl)oxetan-3-yl)phenyl)-6-(((S)-3-(hydroxymethyl)piperidin-1-yl)methyl)-4-(trifluoromethyl)isoindolin-1-one] |
| 130 | 180 | 1.4 | COCC1CCN(Cc2cc3c(c(C(F)(F)F)c2)CN(c2cccc(C4([C@@H](F)c5nncn5C)COC4)c2)C3=O)CC1 [Compound 145, (R)-2-(3-(3-(fluoro(4-methyl-4H-1,2,4-triazol-3-yl)methyl)oxetan-3-yl)phenyl)-6-((4-(methoxymethyl)piperidin-1-yl)methyl)-4-(trifluoromethyl)isoindolin-1-one] |
| 430 | 480 | 1.1 | COCC1CCN(Cc2cc3c(c(C(F)(F)F)c2)CN(c2cccc(C4([C@H](F)c5nncn5C)COC4)c2)C3=O)CC1 [Compound 146, (S)-2-(3-(3-(fluoro(4-methyl-4H-1,2,4-triazol-3-yl)methyl)oxetan-3-yl)phenyl)-6-((4-(methoxymethyl)piperidin-1-yl)methyl)-4-(trifluoromethyl)isoindolin-1-one] |

Second part, the compound before the results:

| Compound | IC50 [1] [nM] | IC50 [2] [nM] | (fold-selectivity) [2] [x] |
| --- | --- | --- | --- |
| CO[C@H]1CCN(Cc2cc3c(c(C(F)(F)F)c2)CN(c2cccc(C4([C@@H](F)c5nncn5C)COC4)c2)C3=O)C1 [Compound 131, 2-(3-(3-((R)-fluoro(4-methyl-4H-1,2,4-triazol-3-yl)methyl)oxetan-3-yl)phenyl)-6-(((S)-3-methoxypyrrolidin-1-yl)methyl)-4-(trifluoromethyl)isoindolin-1-one] | 59 | 170 | 2.9 |
| CO[C@H]1CCN(Cc2cc3c(c(C(F)(F)F)c2)CN(c2cccc(C4([C@H](F)c5nncn5C)COC4)c2)C3=O)C1 [Compound 132, 2-(3-(3-((S)-fluoro(4-methyl-4H-1,2,4-triazol-3-yl)methyl)oxetan-3-yl)phenyl)-6-(((S)-3-methoxypyrrolidin-1-yl)methyl)-4-(trifluoromethyl)isoindolin-1-one] | 230 | 470 | 2.1 |
| Cn1cnnc1[C@H](F)C1(c2cccc(N3Cc4c(cc(CN5CCC(F)(CO)CC5)cc4C(F)(F)F)C3=O)c2)COC1 [Compound 133, (R)-2-(3-(3-(fluoro(4-methyl-4H-1,2,4-triazol-3-yl)methyl)oxetan-3-yl)phenyl)-6-((4-fluoro-4-(hydroxymethyl)piperidin-1-yl)methyl)-4-(trifluoromethyl)isoindolin-1-one] | 90 | 170 | 1.9 |
| Cn1cnnc1[C@@H](F)C1(c2cccc(N3Cc4c(cc(CN5CCC(F)(CO)CC5)cc4C(F)(F)F)C3=O)c2)COC1 [Compound 134, (S)-2-(3-(3-(fluoro(4-methyl-4H-1,2,4-triazol-3-yl)methyl)oxetan-3-yl)phenyl)-6-((4-fluoro-4-(hydroxymethyl)piperidin-1-yl)methyl)-4-(trifluoromethyl)isoindolin-1-one] | 210 | 670 | 3.3 |
| COCC1(F)CN(Cc2cc3c(c(C(F)(F)F)c2)CN(c2cccc(C4([C@@H](F)c5nncn5C)COC4)c2)C3=O)C1 [Compound 135, (R)-2-(3-(3-(fluoro(4-methyl-4H-1,2,4-triazol-3-yl)methyl)oxetan-3-yl)phenyl)-6-((3-fluoro-3-(methoxymethyl)azetidin-1-yl)methyl)-4-(trifluoromethyl)isoindolin-1-one] | 96 | 180 | 1.9 |
| COCC1(F)CN(Cc2cc3c(c(C(F)(F)F)c2)CN(c2cccc(C4([C@H](F)c5nncn5C)COC4)c2)C3=O)C1 [Compound 136, (S)-2-(3-(3-(fluoro(4-methyl-4H-1,2,4-triazol-3-yl)methyl)oxetan-3-yl)phenyl)-6-((3-fluoro-3-(methoxymethyl)azetidin-1-yl)methyl)-4-(trifluoromethyl)isoindolin-1-one] | 280 | 560 | 2.0 |
| Cn1cnnc1[C@H](F)C1(c2cccc(N3Cc4c(cc(CN5CC(C(F)F)C5)cc4C(F)(F)F)C3=O)c2)COC1 [Compound 137, (R)-6-((3-(difluoromethyl)azetidin-1-yl)methyl)-2-(3-(3-(fluoro(4-methyl-4H-1,2,4-triazol-3-yl)methyl)oxetan-3-yl)phenyl)-4-(trifluoromethyl)isoindolin-1-one] | 29 | 57 | 1.9 |
| Cn1cnnc1[C@@H](F)C1(c2cccc(N3Cc4c(cc(CN5CC(C(F)F)C5)cc4C(F)(F)F)C3=O)c2)COC1 [Compound 138, (S)-6-((3-(difluoromethyl)azetidin-1-yl)methyl)-2-(3-(3-(fluoro(4-methyl-4H-1,2,4-triazol-3-yl)methyl)oxetan-3-yl)phenyl)-4-(trifluoromethyl)isoindolin-1-one] | 98 | 180 | 1.8 |
| Cn1cnnc1[C@H](F)C1(c2cccc(N3Cc4c(cc(CN5CC6(CCO6)C5)cc4C(F)(F)F)C3=O)c2)COC1 [Compound 139, (R)-6-(1-oxa-6-azaspiro[3.3]heptan-6-ylmethyl)-2-(3-(3-(fluoro(4-methyl-4H-1,2,4-triazol-3-yl)methyl)oxetan-3-yl)phenyl)-4-(trifluoromethyl)isoindolin-1-one] | 230 | 640 | 2.8 |
